pEC50: −log10 of the molar value.
How the values were obtained:
Plasmodium falciparum [1] = assay: NOVARTIS: Inhibition of Plasmodium falciparum 3D7 (drug-susceptible) proliferation in erythrocyte-based infection assay; assay type: functional, organism-based; settings: Plasmodium falciparum, 3D7
Plasmodium falciparum [2] = assay: NOVARTIS: Inhibition of Plasmodium falciparum W2 (drug-resistant) proliferation in erythrocyte-based infection assay; assay type: functional, organism-based; settings: Plasmodium falciparum, W2; read-out: EC50
[3] = NOVARTIS: Cytotoxicity against human hepatocellular carcinoma cell line (Huh7); assay type: toxicity, cell-based, Huh-7; settings: Huh7 cells (hepatocellular carcinoma cell line)

Row | SMILES | pEC50 (Plasmodium falciparum [1]) | pEC50 (Plasmodium falciparum [2]) | CC50 [3] [µM]
1 | CN(C)CCCNc1c2ccccc2nc2ccccc12 | 7.49 | 6.41 | 8.45
2 | Cc1cc(C)cc(-n2c(C)cc(/C=C3\SC(=Nc4ccc(Br)cc4)NC3=O)c2C)c1 | 5.59 | 5.35 | > 100
3 | c1ccc(-c2nc(NCCCn3ccnc3)cc(-c3ccncc3)n2)cc1 | 6.62 | 6.34 | > 10
4 | CN(C)CCn1c(=N)n(CC(O)c2ccc(Cl)c(Cl)c2)c2ccccc21 (centres undefined) | 6.59 | 6.34 | > 10
5 | O=C(Cn1c2ccccc2c(=O)c2ccc(Cl)cc21)Nc1ccc(C(F)(F)F)cc1 | 5.01 | 5.34 | > 100
6 | CCSC1=CC(=O)c2ccccc2C1=O | 6.26 | 6.64 | 5.17
7 | COc1cc(NC(C)CCCN(Cc2ccc(OC)c(OC)c2)C(=O)c2ccc3ccccc3c2)c2ncccc2c1 (centres undefined) | 6.39 | 6.61 | 5.33
8 | CC[C@@H](C(=O)[C@@H](C)[C@@H](O)[C@H](C)CCc1ccc(C)c(O)c1C(=O)O)[C@H]1O[C@](CC)([C@H]2CC[C@](O)(CC)[C@@H](C)O2)C[C@@H]1C | 6.14 | 6.33 | > 10
9 | OC1(c2ccc(Br)cc2)CCN(C2CCN(Cc3ccccc3)CC2)CC1 | 6.74 | 6.36 | 9.26
10 | COc1cc(NC(C)CCCN(Cc2ccc(N(C)C)cc2)S(=O)(=O)c2cccc3ccccc23)c2ncccc2c1 (centres undefined) | 6.09 | 6.19 | > 13.9
11 | CC(NS(=O)(=O)c1ccccc1)C(=O)NC1CCCC1 (centres undefined) | < 5.36 | 5.34 | > 100
12 | CCOC(=O)c1ccc2nc3c(nc2c1)C(=O)c1ccccc1C3=O | 7.57 | 7.63 | 0.512
13 | N=c1n(CCN2CCCCC2)c2ccccc2n1CC(O)COc1ccc(Cl)cc1 (centres undefined) | 6.28 | 6.55 | 6.27
14 | COc1ccccc1NC1=CC(=NS(=O)(=O)c2cccs2)c2ccccc2C1=O | 5.97 | 6.04 | 19.7
15 | CN(C)c1cc[n+](OC(=O)N2CCCCC2)cc1 | 6.88 | < 6.34 | > 10
16 | CCOc1ccc(Nc2nc(NCc3ccco3)c3ccccc3n2)cc1 | 6.54 | 6.28 | 11.6
17 | Brc1ccc(-c2cn3c([n+]2Cc2ccccc2)SCCC3)cc1 | 6.38 | 5.61 | 53.3
18 | CN(CCCNc1ccnc2cc(Cl)ccc12)C(=O)c1cc(Cl)cc(Cl)c1 | 6.63 | 6.34 | > 10
19 | CCCCCCCc1ccc(-c2nnc(-c3ccc([N+](=O)[O-])cc3)o2)cc1 | < 5.90 | < 6.34 | > 10
20 | CCOC(=O)C1=C(C)N(c2ccc(N(C)C)cc2)C(C)=C(C(=O)OCC)C1c1ccc(Br)cc1 | < 5.95 | 6.05 | 19.6
21 | CCC(C)NC(=O)C1CSC(c2cccc(F)c2)N1C(=O)c1cc(OC)c(OC)c(OC)c1 (centres undefined) | < 5.90 | 7.53 | > 0.654
22 | Cn1nc(C(=O)NCc2ccc(F)cc2)c2c1CCC(N1CCC(CO)CC1)C2 (centres undefined) | < 5.90 | < 6.34 | > 10
23 | CCOC(=O)C1(CC2CCCCO2)CCN(C(=O)Nc2cccc(SC)c2)CC1 (centres undefined) | < 4.90 | 5.34 | > 100

Row | SMILES | pEC50 (Plasmodium falciparum [1]) | pEC50 (Plasmodium falciparum [2]) | CC50 [3] [µM]
24 | COc1ccc(S(=O)(=O)N=C2C=C(Nc3ccc(O)cc3)C(=O)c3ccccc32)cc1 | 6.73 | 6.96 | 2.45
25 | N#CC(=CC=Cc1ccc([N+](=O)[O-])o1)c1nc2ccccc2[nH]1 | 6.42 | 6.41 | 8.69
26 | CCN(CC)c1ccc(NC(=O)C2Cc3ccccc3CN2S(=O)(=O)c2ccc(F)cc2)cc1 (centres undefined) | 5.13 | 5.34 | > 100
27 | CC(=O)Nc1ccc2nc(C)sc2c1 | < 5.90 | < 6.35 | > 10
28 | Cc1ccccc1C(=O)N1CCC(n2nccc2NC(=O)CCOc2ccccc2)CC1 | < 4.90 | 5.35 | > 100
29 | O=C(NCCCCNc1ccnc2cc(Cl)ccc12)c1cccc(Br)c1 | 6.37 | 6.34 | > 10
30 | Oc1ccccc1-c1nc2sc(-c3ccccc3O)nc2s1 | < 6.00 | 6.33 | > 10
31 | Cc1ccc(C)c(Nc2nc3c(s2)CCCC3)c1 | < 4.90 | 5.35 | > 100
32 | COC(=O)C1=CNC=C(C(=O)OC)C1c1cc(OC)c(OC)c(OC)c1 | 5.05 | 5.35 | > 100
33 | CCn1cc(C(=O)NCCC2=CCCCC2)c(=O)c2cc(S(=O)(=O)N(C)C)ccc21 | < 5.90 | < 6.35 | > 10
34 | CCc1cc(C(=O)N2CCC[C@@H]3CN(C(=O)c4ccc(F)cc4)CC[C@@H]32)n(C)n1 | < 4.90 | 5.33 | > 100
35 | O=C1CN=C(c2ccccc2Cl)c2cc(Cl)ccc2N1Cc1cccc([N+](=O)[O-])c1 | < 5.35 | < 5.33 | > 100
36 | COc1ccc(-c2cnnc(NN=Cc3ccc([N+](=O)[O-])o3)n2)cc1 | < 5.90 | < 6.33 | > 10
37 | Cc1cc(NC2CCCCC2)nc(NCc2ccccc2)n1 | 6.53 | 6.44 | 7.87
38 | O=C1N(c2ccccc2)C[C@@H]2C[C@@H](c3ccc(C#CCCO)cc3)N3CCC[C@@]123 | 6.08 | 6.12 | 16.8
39 | O=C(C1CCN(C(c2ccc(F)cc2)c2ccc(F)cc2)CC1)N1CCCC1 | < 6.23 | 6.35 | > 10
40 | c1csc(CN2CCc3nc(N4CCCCC4)sc3C2)c1 | 5.90 | 6.35 | > 10
41 | O=C(C=Cc1ccccc1)c1c(-c2ccccc2)c2cc([N+](=O)[O-])ccc2[nH]c1=O | < 5.03 | < 5.35 | > 100
42 | COC(=O)c1ccccc1NC(=O)CN(C)c1nc(-c2ccc(OC)cc2)no1 | 6.10 | 6.35 | > 10
43 | CCCN1CCC(N2CCCC(c3[nH]ncc3-c3cccc(C(F)(F)F)c3)C2)CC1 (centres undefined) | 6.12 | 6.35 | > 10
44 | CCc1ccc(CN2CCC(O)(c3ccc4oc(C(=O)Nc5ccc6c(c5)OCO6)cc4c3)CC2)cc1 | 6.44 | 6.34 | 10.3
45 | CC[N+](C)(CC)CCSc1nc2ccccc2c(=S)n1-c1ccc(OC)cc1 | 6.55 | 6.35 | > 10
46 | CCCCNCCOCCOc1ccc(Br)cc1 | < 4.93 | 5.79 | 35.7

Row | SMILES | pEC50 (Plasmodium falciparum [1]) | pEC50 (Plasmodium falciparum [2]) | CC50 [3] [µM]
47 | CC(C)N(CC(=O)Nc1cc(C(C)(C)C)nn1-c1ccc(Cl)cc1)C(=O)c1ccc(C(C)(C)C)cc1 | 5.00 | 5.35 | > 100
48 | CN(Cc1cc2ccc(F)cc2n(CCN2CCCCC2)c1=O)CC1COCCO1 (centres undefined) | < 4.90 | 5.34 | > 100
49 | CCOc1cccc2oc(=O)c(C(=O)Nc3cc(C(C)(C)C)on3)cc12 | < 4.93 | < 5.34 | > 100
50 | CCN1CCN(c2cc(C)c3cc(NC(=O)c4cc(OC)cc(OC)c4)ccc3n2)CC1 | 6.74 | 6.23 | 12.9
51 | COc1cc2nc(SCC(C)C)n(CCCn3ccnc3)c(=N)c2cc1OC | 6.09 | 6.03 | 19.9
52 | C/C=C/[P+](c1ccccc1)(c1ccccc1)c1ccccc1 | 7.28 | 6.89 | 2.81
53 | C=C[C@H]1CN2CC[C@H]1C[C@H]2[C@H](OC(=O)CCCC)c1ccnc2ccccc12 | 6.03 | 6.34 | > 10
54 | OC1(c2ccc(Cl)c(C(F)(F)F)c2)CCN(CCOC2c3ccccc3CSc3ccc(Cl)cc32)CC1 (centres undefined) | 5.99 | 6.05 | 19.2
55 | C/C(Cl)=C/C[N+]1(CC#Cc2cccc3ccccc23)CCOCC1 | 6.17 | 6.35 | > 10
56 | Cc1ccc(Cl)cc1Nc1nc2ccccc2n2c(C)nnc12 | < 4.90 | 5.35 | > 100
57 | CCN(C(C)=O)C1=C(N2CCOCC2)C(=O)c2ccccc2C1=O | 6.77 | 6.73 | 4.09
58 | O=C(CN1CCCC1)Nc1c2c(nc3c1CCC3)CCC2 | < 5.90 | < 6.34 | > 10
59 | CCOC(=O)C1=C(c2ccccc2)N=c2sc(=Cc3c(C)n(Cc4ccc(F)cc4)c4ccccc34)c(=O)n2C1c1cccc(OC)c1OC (centres undefined) | 5.95 | 5.34 | > 100
60 | CCc1ccc(N(C(=O)CCN2CCc3ccccc32)C(C(=O)NCc2ccccc2)c2ccc(OC)c(OC)c2)cc1 (centres undefined) | 5.29 | 5.35 | > 100
61 | CC(C)(C)C1=NN(CC(=O)NCCc2c[nH]cn2)C(=O)c2cc3ccccc3n2C1 | < 5.90 | < 6.21 | > 13.2
62 | N#Cc1ccccc1Cn1ccc(=NCc2ccccc2)cc1 | 5.98 | < 6.33 | > 10
63 | N#C/C(=C\c1cn(Cc2ccccc2Cl)c2ccccc12)c1nn(CCO)c(N)c1C#N | 6.30 | 6.35 | > 10
64 | O=C(c1cc2nc(-c3ccccc3)cc(C(F)(F)F)n2n1)N1CCN(Cc2ccccc2)CC1 | 5.53 | 5.34 | > 100
65 | CN1CCC(N2CCC(Oc3cccc(C(=O)NCCC4=CCCCC4)c3)CC2)CC1 | 6.11 | 6.03 | 20.7
66 | O=C(c1ccc2ccccc2c1)N1CCc2ccccc21 | 5.46 | 5.34 | > 100
67 | Cc1ccc(S(=O)(=O)Oc2ccc(C=NN=C(N)N)cc2)cc1 | 6.81 | 6.20 | 14.1
68 | C[n+]1cc(-c2ccc3cccc([N+](=O)[O-])c3n2)cc2ccccc21 | 6.44 | 6.35 | > 10

— ChEMBL document CHEMBL1156829 (Proc Natl Acad Sci U S A, 2008)
